Results on three molecules are retold here after paper PMC3095212 (Journal of immunology (Baltimore, Md. : 1950), 2011).

For orientation: IC50 means the concentration that gives 50% inhibition. Read a high IC50 as a need for much substance.

One test relates to CD8-negative 2C T cells. In words: T cell stimulation/antagonism, secreted IL-2. Format: cell-based, mouse. Particulars: 24 h.
For test [1], the system named is CD8-negative m33 Y48βA T cells. Put plainly: T cell stimulation/antagonism, secreted IL-2. Format: cell-based, mouse. The settings on record: 24 h.
Another test concerns CD8-negative m33 T cells. The settings on record: 24 h.
The test system of another test is K^b. The settings on record: ref [28]; cited from earlier work.

Residues, ends and D or L forms follow the SMILES beside them.

Take `CC(C)C[C@H](NC(=O)[C@H](CC(=O)O)NC(=O)[C@H](Cc1ccccc1)NC(=O)[C@@H]1CCCN1C(=O)[C@H](CCCNC(=N)N)NC(=O)[C@@H]1CCCN1C(=O)[C@H](CO)NC(=O)[C@H](CC(C)C)NC(=O)[C@@H](N)CCC(N)=O)C(=O)O` [QL9 F5R] (H-QLSPRPFDL-OH): the IC50 in the test with CD8-negative 2C T cells was 0.44 ± 0.27 nM; in test [1] it was 4.7 ± 0.4 nM. Molecule `CC[C@H](C)[C@H](NC(=O)[C@@H](N)CO)C(=O)N[C@@H](Cc1ccc(O)cc1)C(=O)N[C@@H](C)C(=O)N[C@@H](Cc1ccc(O)cc1)C(=O)N[C@@H](Cc1ccc(O)cc1)C(=O)NCC(=O)N[C@@H](CC(C)C)C(=O)O` [SIY R4A] (H-SIYAYYGL-OH) had an IC50 with CD8-negative m33 T cells of 0.15 nM. Take SIINFEKL [OVA]: in the test on K^b, the “half-life of OVA/K^b” value is 23 h.
